Laboratory results as given in ChEMBL document CHEMBL3507680, “University of Dundee, Gates Library screen for HepG2 cell viability”.

Experiment: Human HepG2 cell viability assay in 384 well format
Format: toxicity, cell-based
Parameters: dose 125 nL, time 70.5 hour; cytotoxicity at 70.5 h: concentration not given beside the values
Details: HepG2 cells, read-out: Inhibition

Compound	cytotoxicity at 70.5 h
O=C(c1ccc(F)cc1)N1CC[C@H]2[C@H]1CCN2CC1CC1	-17.1%
Cn1ccc(CN2CCC3(CCCN3CC3CC3)CC2)n1	-6.07%
Cc1nn(C)c2c(=O)n(C(C)C)c(NCC3CCCO3)nc12 (stereo not drawn)	-9.24%
c1csc(-c2noc(CN3CCCCC3Cn3cccn3)n2)c1 (stereo not drawn)	-1.63%
O=C(Nc1cnc(C2CC2)nc1)N1CCC(CN2CCCC2)C1 (stereo not drawn)	17.5%
CN1CCN(CC2CC2)C(=O)C12CCN(c1nccs1)CC2	7.83%
O=S(=O)(N1CCOCC1)N1CCc2sccc2C1	6.06%
COC(=O)CCCNC(=O)Nc1ccccc1OC	12.5%
CN(C)C(=O)N1CCC(C(=O)N2CCOC(CC3CCCCC3)C2)CC1 (stereo not drawn)	-0.504%
CN1C(=O)CC(c2cnn(C)c2)C12CCN(C(=O)c1ccncc1)CC2 (stereo not drawn)	-6.57%
O=C1CO[C@H]2CN(C3CCOCC3)C[C@H]2N1Cc1ccncc1	0.0501%
CCN(CCO)C[C@@H]1CN(c2cccc(C(F)(F)F)n2)C[C@@H]1CO	-11.5%
CN(C)C(=O)Cn1c(C2CC2)c(CN2CCC(O)CC2)c2cccnc21	12.5%
COc1ncc(Cl)c(NCc2ccc(C(=O)N(C)C)cc2)n1	27.7%
COc1cccc(CNc2cc(C)nc(-c3ccncc3)n2)c1OC	-6.44%
CCCc1noc(-c2ccc(-n3ncc(C(=O)O)c3C)nc2)n1	23.5%
COCCOC(=O)N1CCN2C[C@@H](CO)[C@H](c3ccccc3)[C@H]2C1	0.912%
COCCN(Cc1ccncc1)C(=O)C1COc2c(cccc2OC)C1 (stereo not drawn)	0.81%
Cc1ccc(S(=O)(=O)c2ncccc2CN2CCCCC2)cc1	-21%
COC[C@]12COC[C@H]1CN(C(=O)C1CC(F)(F)C1)C2	-8.18%
CCc1csc(C2CCCN(C(=O)c3cnn(CC)c3)C2)n1 (stereo not drawn)	6.03%
Cc1ccc(F)c(S(=O)(=O)NCCc2nnc[nH]2)c1	15.4%
Cc1cnn(CCC(=O)N2CCOC(c3nc(C(C)(C)C)n[nH]3)C2)c1 (stereo not drawn)	15.8%

Compound	cytotoxicity at 70.5 h
CCCc1nc(CNC(=O)Cc2csc(C)n2)cs1	0.825%
CC(C(=O)NCCCN1CCOCC1)n1cncn1 (stereo not drawn)	6.37%
COc1cc(CNc2ccccc2Cl)ccc1OCC(=O)O	19%
COc1ccc(-c2nnc(CN3CCCC3Cn3cncn3)o2)cc1 (stereo not drawn)	15.3%
CS(=O)(=O)N1CCC(c2nnc(Cn3ccnc3)n2C2CC2)CC1	-3.52%
O=S(=O)(NCC1COc2ccccc2C1)N1CCOCC1 (stereo not drawn)	-3.96%
O=C(NCc1cccs1)C1CCCN(c2cc(-n3cncn3)ncn2)C1 (stereo not drawn)	-3.14%
COc1c(F)ccc(C(=O)N2CC[C@H](CO)[C@@H](O)C2)c1F	-3.48%
CCn1nc2c(cc1=O)CN(CC1CCCCO1)CC2 (stereo not drawn)	11.3%
CC(Cn1cncc1-c1cnn(C2CCCCC2)c1)N1CCCCC1 (stereo not drawn)	25%
COc1ccc(CC(=O)N2CCc3nc(C(=O)N(C)C)sc3CC2)cc1	-4%
Cn1c(NCc2ccc(C(N)=O)cc2)nc2cc(Cl)ccc21	18.9%
CC(=O)N1CCCC1c1cc(N2CCN(CC3CC3)CC2)cc(C)n1 (stereo not drawn)	-1.76%
CC(C)(C)c1cn2nc(N3CCC[C@@H]3CO)sc2n1	-17.4%
OC1CCN(Cc2cc3c(cc2Br)OCCO3)CC1	0.754%
Cc1cccc(CO[C@@H]2CC[C@H]3[C@H]2OCCN3Cc2ccsc2)n1	-12.2%
Cc1cccc(CN2Cc3ccnn3CC(COCC3CC3)C2)n1 (stereo not drawn)	8.5%
CCn1cc(NC(=O)C2CCC(=O)N2Cc2ccc(C)o2)cn1 (stereo not drawn)	-2.42%
CNC(=O)C(C)(C)N1CCC[C@H]1C(=O)NCC(C)C	-6.89%
CN1CCCC1c1ccnc2nccn12 (stereo not drawn)	-7.34%
NCc1cn(-c2ccccc2C(=O)NCc2cccc(Cl)c2)cn1	-13.7%
Cc1noc(C)c1CN1CC2(CCN(Cc3c[nH]cn3)CC2)CC1=O	-2.12%
CCCn1c(C)c(CC(=O)NCCC(N)=O)c2c1CC(C)(C)CC2=O	11.1%

Compound	cytotoxicity at 70.5 h
Cc1ncncc1C(=O)N1CCC(O)(CN(C)Cc2ccc(F)cc2)C1 (stereo not drawn)	-5.31%
CC(=O)N1CCCN(C(=O)c2cnc(OC(C)C)c(Cl)c2)CC1	-11.9%
Cc1cc(C)n(C2CCCN(C(=O)c3ccn(C)c(=O)c3)C2)n1 (stereo not drawn)	-9.18%
CCOC(=O)C1CCN(C(=O)CN2CCCC2Cc2ccccc2)CC1 (stereo not drawn)	-17.2%
COc1ccc(C(C(=O)O)N2CCN(C3CCCCC3)CC2)cc1OC (stereo not drawn)	13.6%
Nc1ncc2c(n1)CN(C1CCCC1)C2=O	-7.28%
O=C(N[C@]12CC1CN(C(=O)c1ccco1)C2)c1ccco1 (stereo partly drawn)	-2.69%
CC(=O)N1CCN(Cc2ccc(C(F)(F)F)c(F)c2)CC(O)C1 (stereo not drawn)	0.294%
Cc1nc(N)cc(N2CCCC(COc3cccc(F)c3)C2)n1 (stereo not drawn)	-16.1%
CCOC(C)c1nc(Cn2cc(C)cn2)cs1 (stereo not drawn)	9.54%
Cc1nn(C)c(C)c1C1COCCN1C(=O)c1n[nH]c2ccccc12 (stereo not drawn)	-10.8%
CC(NCC1CCN(CCO)CC1)c1cccnc1 (stereo not drawn)	28.1%
CC(=O)N1CCC(NC(=O)NCc2ncc(-c3ccccc3)o2)CC1	-3.53%
CN(C)Cc1cnc(C2CN(C(=O)c3ccccc3Cl)CCO2)[nH]1 (stereo not drawn)	-1.46%
CCS(=O)(=O)N1Cc2ncn(C)c2C(COCC2CCOCC2)C1 (stereo not drawn)	-3.96%
Cc1cnc(C)c(N2CCC(c3nccn3Cc3cscn3)CC2)n1	14.9%
Cn1cnnc1C1CCN(C(=O)Cc2ccc3c(c2)OCCO3)CC1	-2.32%
COCCN1CCC(C(=O)N(C)Cc2c[nH]c3ccc(C)cc23)C1 (stereo not drawn)	-8.11%
Cc1ccc(C2=CCN(C(=O)C3CCN(C)C(=O)C3)CC2)cc1 (stereo not drawn)	-6.32%
CC(=O)NC1CCN(c2ccnc(C3CCNCC3)c2)CC1	-5.48%
CC(C)(C)OCCN1CCCC1c1nc(Cc2ccc(F)cc2)no1 (stereo not drawn)	11.6%
CCOc1c(Br)cc(/C=C/c2ncc(C(=O)O)s2)cc1OC	-11.1%
O=c1cc(CN2CCCC(CCc3c(F)cccc3F)C2)[nH]c(=O)[nH]1 (stereo not drawn)	-8.15%

Compound	cytotoxicity at 70.5 h
CC(C)CCCNC(=O)Nc1ccc(Cl)c(C(N)=O)c1	1.37%
CC/N=c1\nc(NCC)nc2n1C(O)(Nc1cccc(Cl)c1Cl)CS2 (stereo not drawn)	-1.29%
O=C(CNc1cccc(S(=O)(=O)C(F)F)c1)Nc1ccccc1	-5.1%
Cn1cc(NC(=O)Cn2c(CS(C)(=O)=O)nc3ccccc32)cn1	-6.35%
CN(C)[C@@H]1CCN(S(=O)(=O)c2cn(C)cn2)[C@H]1Cc1cccnc1	-2.89%
CCC(C(=O)N1CCN(S(=O)(=O)N2CCCC2)CC1)n1cccn1 (stereo not drawn)	-3.42%
CCCn1cc(C(=O)N2CCCC(Cc3nccs3)C2)cn1 (stereo not drawn)	-4.77%
COc1cccc2c1OCC(C(=O)NCCc1nnc(N)s1)C2 (stereo not drawn)	-5.75%
Cc1cccc(NC(=O)N2CCC3(CCC(C(=O)N(C)C)O3)CC2)c1 (stereo not drawn)	-11.4%
CCN(Cc1cc(Cl)ccc1OC)Cc1ncnn1CC	1.58%
Cc1cn2c(n1)CCC(NC(=O)CCOc1cccc(F)c1)C2 (stereo not drawn)	-4.07%
CCOC(C)c1noc(CN(C)C(=O)C2C(C)(C)C2(C)C)n1 (stereo not drawn)	-2.89%
COC(=O)CNC(=O)C(C)Oc1ccccc1C(F)(F)F (stereo not drawn)	-3.31%
CCc1noc(C(C)N2CCC(N3CCCCC3)CC2)n1 (stereo not drawn)	-6.88%
Cc1nc(NC(=O)c2nn(-c3ccc(F)cc3C)cc2O)n[nH]1	-14.6%
COc1ccccc1-c1cc(NC(=O)CCS(=O)(=O)C2CCCC2)[nH]n1	25.9%
CCn1nnc2c1C(COC)CN(C(=O)COc1ccccc1)C2 (stereo not drawn)	0.105%
O=S(=O)(c1ccccc1Br)N1CCC2(CC1)OCCS2	-2.19%
CCCN1CCCn2nc(CNS(=O)(=O)c3ccc(F)cc3)cc2C1	4.7%
COCCNS(=O)(=O)c1ccc(Cl)c(C(=O)N(C)Cc2sccc2C)c1	-12.1%
COc1cccc(S(=O)(=O)CCNCCn2cccn2)c1	-10.6%
CCOCC1CN(CCN(C)C)Cc2cnn(CC3CCCC3)c21 (stereo not drawn)	4.97%
C[C@@H]1C[C@@H]2CCN(Cc3ccncc3)C[C@H]2O1	-3.23%

Compound	cytotoxicity at 70.5 h
CCC(NC(=O)Cn1ccc(=O)n(C)c1=O)c1ccccc1OC (stereo not drawn)	-7%
Cc1ccoc1C(=O)N1C[C@@H]2COC[C@]2(COCc2cccnc2)C1	-0.687%
CC1CN(C(=O)c2sccc2Br)CCO1 (stereo not drawn)	-10.9%
Cn1cnc2c1CCN(Cc1ccc(Cl)c3cccnc13)C2	15.6%
CN1CCN(c2ccc3ccc(C(=O)N4CCCCO4)cn23)CC1	-6.94%
O=C1CC2(CCN(C(=O)c3csc(-c4ccccc4)n3)C2)C(=O)N1 (stereo not drawn)	-5.85%
Cc1ccc(NC2CCN(C(=O)COC3CCCC3)CC2)nn1	-8.07%
O=C1OCCN1CCS(=O)(=O)c1cccc(Cl)c1	-5.19%
CN(CC(=O)Nc1nc2c(s1)CCCCCC2)C(=O)c1ccco1	-17.3%
Cc1ccc(S(=O)(=O)Nc2ccc(-n3nnn(C)c3=O)cc2)cc1	1.6%
c1ccc(-c2cnc(CNC3CCCN(c4cccnn4)C3)o2)cc1 (stereo not drawn)	-4.5%
O[C@@]1(CNCC2(Cn3cccn3)CC2)CCCN2CCCC[C@@H]21	-11.3%
COCCc1noc(CN(C)C(=O)C(C)N2CCc3ccccc3C2)n1 (stereo not drawn)	-9.3%
O=C(C1CCCCC1)N1C[C@H]2CNC[C@H]2C1	-11%
CC(C)CN1CC(C(=O)NCCNc2ncccn2)CC1=O (stereo not drawn)	-0.397%
Cc1ccc(-c2ncc(CNc3cnccc3CO)s2)cc1	3.65%
CCc1ccc(CNC(=O)Cn2ccc3sccc3c2=O)cc1	2.36%
OC(COCc1ccccc1Cl)CN1CC(n2cccn2)C1 (stereo not drawn)	4.22%
CN1CCCN(c2nccc(-c3cc(C(=O)O)ccn3)n2)CC1	24.6%
Cn1c(=O)n(C)c2nc(Cl)c(CC(=O)c3ccccc3)n2c1=O	-4.74%
CCC(=O)NC1CCCN(C(=O)c2ccc(OCC3CC3)nc2)C1 (stereo not drawn)	15.5%
